“Also recorded” adds a separate entry of the source.
Experiments:
microorganisms = assay: Peptides having multiple activities (targeting/binding, antimicrobial, growth or phenotype altering)
Text: In certain embodiments, peptides described herein can have multiple activities. Thus for example, a peptide can have both binding/targeting activity and antimicrobial activity. Such peptides can be used, e.g., in a chimeric construct, for any or all of these properties. Thus, for example, a peptide designated “B” in Table 8 can be used as a targeting peptide. If it is also designated G or M it can also be used for antimicrobial activity.

S. epidermidis = assay: Kill or inhibit growth/proliferation; morphology, biofilm and growth disruption (Tables 5, 6); format: cell-based, Staphylococcus epidermidis; design: key: A: Peptide aggregates; B: Less hyphal formation; Clumps; Diffuse clumps and small polyps; F: Diffuse growth; H: Thin; I: Growth inhibition; Microcolony formation; Rippled; Small polyps; Thick; W: Halo formation on top, microlonies on bottom; note: test concentration or dose not given here
[1] = tested on: microorganisms (e.g., bacteria, yeasts, fungi); assay: Targeting peptide binding to target microorganisms (Table 3); settings: preferably 1x PBS
MRSA = assay: Kill or inhibit growth/proliferation; morphology, biofilm and growth disruption (Tables 5, 6); format: cell-based, Methicillin-resistant Staphylococcus aureus; design: key: A: Peptide aggregates; B: Less hyphal formation; Clumps; Diffuse clumps and small polyps; F: Diffuse growth; H: Thin; I: Growth inhibition; Microcolony formation; Rippled; Small polyps; Thick; W: Halo formation on top, microlonies on bottom; note: test concentration or dose not given here
S. pneumoniae = assay: as above; format: cell-based, Streptococcus pneumoniae; design: key: A: Peptide aggregates; B: Less hyphal formation; Clumps; Diffuse clumps and small polyps; F: Diffuse growth; H: Thin; I: Growth inhibition; Microcolony formation; Rippled; Small polyps; Thick; W: Halo formation on top, microlonies on bottom
[2] = microorganism the targeting peptide binds, binding in aqueous buffers varied by peptide solubility
[3] = microorganism(s) the targeting peptide binds, binding in aqueous buffers depending on peptide solubility
[4] = microorganism(s) the targeting peptide binds, peptide binding conducted in aqueous buffers varied by peptide solubility
Throughout, for Organism, effect (morphology, biofilm and growth disruption): test concentration or dose not given here.
Throughout, for Organism, effect: test concentration or dose not given here.

Substance	Activities (microorganisms)	Organism, effect (S. epidermidis)	Organism, effect (MRSA)	Target(s) [1, 3]	also measured
PF-009: peptide having multiple activities (chain 1 SKKYNHILNQENR; chain 2 SKKYNHILNQENR; Peptide with targeting and/or antimicrobial activity)	G B	S. epidermidis (S)			Target(s) [1, 2]: M. luteus; also recorded: P. mirabilis; also recorded: C. albicans
PF-024: peptide having multiple activities (chain 1 DLRKAK; chain 2 DLRKAK; Peptide with targeting and/or antimicrobial activity)	G B	S. epidermidis (D)	MRSA (M)		Target(s) [1, 2]: M. luteus and C. albicans and MRSA and E. faecalis and C. jeikeium
PF-074: peptide having multiple activities (RDIHPIYFMTKD; Peptide with targeting and/or antimicrobial activity)	G B	S. epidermidis (D)	MRSA (M)	S. epidermidis and M. luteus and MRSA	
PF-273: peptide having multiple activities (LVGALLIFVALIYMVLKGNADKN; Peptide with targeting and/or antimicrobial activity)	G B	S. epidermidis (C)		S. epidermidis; also recorded: M. luteus; also recorded: P. aeruginosa; also recorded: A. baumannii	
PF-027: peptide having multiple activities (chain 1 HNARKYLEFISQKIDGDKLTKEDSL; chain 2 HNARKYLEFISQKIDGDKLTKEDSL; Peptide with targeting and/or antimicrobial activity)	G B	S. epidermidis (D)	MRSA (M)		Target(s) [1, 2]: M. luteus and MRSA and E. faecalis and C. jejuni
PF-294: peptide having multiple activities (DFLVNFLWFKGELNWGKKRYK; Peptide with targeting and/or antimicrobial activity)	G B	S. epidermidis (C)		S. epidermidis; also recorded: C. difficile	
PF-430: peptide having multiple activities (AVVCGYLAYTATS; Peptide with targeting and/or antimicrobial activity)	G B	S. epidermidis (M)	MRSA (M)		Target(s) [1, 4]: S. epidermidis; also recorded: M. luteus; also recorded: E. coli; also recorded: S. pneumoniae; also recorded: E. faecalis; also recorded: C. jeikeium; also recorded: C. jejuni; Organism, effect (S. pneumoniae): S. pneumoniae (M)
PF-404: peptide having multiple activities (VLYFQATVV; Peptide with targeting and/or antimicrobial activity)	G B	S. epidermidis (M)	MRSA (M)		Target(s) [1, 4]: S. epidermidis; also recorded: E. coli; also recorded: P. aeruginosa; also recorded: E. faecalis; also recorded: C. jeikeium; also recorded: C. jejuni
PF-192: peptide having multiple activities (VEEDEAPPPHY; Peptide with targeting and/or antimicrobial activity)	G B	S. epidermidis (D)		S. epidermidis; also recorded: M. luteus; also recorded: P. aeruginosa; also recorded: C. albicans; also recorded: E. faecalis; also recorded: C. jeikeium	
PF-406: peptide having multiple activities (YLEMNADYLSNMDIFDELWEKYLENNK; Peptide with targeting and/or antimicrobial activity)	G B	S. epidermidis (C)	MRSA (M)		Target(s) [1, 4]: E. coli; also recorded: C. jejuni
PF-064: peptide having multiple activities (chain 1 DYYGKE; chain 2 DYYGKE; Peptide with targeting and/or antimicrobial activity)	G B	S. epidermidis (D)	MRSA (M)		Target(s) [1, 2]: E. coli
PF-397: peptide having multiple activities (VEDLMEDLNA; Peptide with targeting and/or antimicrobial activity)	G B	S. epidermidis (C)			Target(s) [1, 4]: S. epidermidis and MRSA and S. pneumoniae and E. faecalis and C. jejuni
PF-034: peptide having multiple activities (chain 1 EPKKKHFPKMESASSEP; chain 2 EPKKKHFPKMESASSEP; Peptide with targeting and/or antimicrobial activity)	G B	S. epidermidis (A)			Target(s) [1, 2]: M. luteus
PF-313: peptide having multiple activities (YITSHKNARAIIKKFERDEILEEVITHYLNRK; Peptide with targeting and/or antimicrobial activity)	G B	S. epidermidis (C)		S. epidermidis; also recorded: C. difficile	
PF-041: peptide having multiple activities (chain 1 ELLVILPGFI; chain 2 ELLVILPGFI; Peptide with targeting and/or antimicrobial activity)	G B	S. epidermidis (R)	MRSA (M)		Target(s) [1, 2]: MRSA
PF-408: peptide having multiple activities (YCVPLGNMGNMNNKIW; Peptide with targeting and/or antimicrobial activity)	G B	S. epidermidis (M)	MRSA (M)		Target(s) [1, 4]: S. epidermidis and E. coli and P. aeruginosa and MRSA and E. faecalis and C. jeikeium and C. jejuni
PF-180: peptide having multiple activities (SGLGDLGFSSEAK; Peptide with targeting and/or antimicrobial activity)	G B	S. epidermidis (C)		S. epidermidis and M. luteus and P. aeruginosa and C. albicans and MRSA and E. faecalis and C. jejuni and M. smegmatis	
PF-378: peptide having multiple activities (chain 1 ESAKSNLNFLMQEEWALFLLL; chain 2 ESAKSNLNFLMQEEWALFLLL; Peptide with targeting and/or antimicrobial activity)	G B	S. epidermidis (M)	MRSA (M)	B. subtilis; also recorded: B. fragilis; also recorded: E. coli; also recorded: P. aeruginosa; also recorded: C. jeikeium	
PF-123: peptide having multiple activities (TTRPQVAEDRQLDDALKETFPASDPISP; Peptide with targeting and/or antimicrobial activity)	G B	S. epidermidis (M)		M. luteus; also recorded: E. coli	
PF-373: peptide having multiple activities (chain 1 HFYLLFER; chain 2 HFYLLFER; Peptide with targeting and/or antimicrobial activity)	G B	S. epidermidis (M)	MRSA (M)	S. epidermidis and E. coli and P. aeruginosa and C. albicans and MRSA and E. faecalis and C. jejuni	
PF-683 (chain 1 LWPVA; chain 2 LWPVA; Peptide with targeting and/or antimicrobial activity)					Organism, effect (morphology, biofilm and growth disruption) (S. epidermidis): S. epidermidis (R); Target(s) (microorganisms bound by the targeting peptide) ([1]; peptide binding in aqueous buffers varied by peptide solubility): Mycobacteria spp; Organism, effect (morphology, biofilm and growth disruption) (S. pneumoniae): S. pneumoniae (H); Organism, effect (morphology, biofilm and growth disruption) (MRSA): MRSA (R)
PF-233: peptide having multiple activities (DANAMARTTIAIVYILALIALTISYSL; Peptide with targeting and/or antimicrobial activity)	G B	S. epidermidis (C)		S. epidermidis; also recorded: M. luteus; also recorded: P. aeruginosa; also recorded: A. baumannii	
PF-417: peptide having multiple activities (DSYFRS; Peptide with targeting and/or antimicrobial activity)	G B	S. epidermidis (M)	MRSA (M)		Target(s) [1, 4]: S. epidermidis; also recorded: C. jeikeium; also recorded: C. jejuni; Organism, effect (S. pneumoniae): S. pneumoniae (M)

Source: patent publication US20110039762A1, “TARGETED ANTIMICROBIAL MOIETIES” (C3 JIAN, INC., priority 2009, published 2011)
